The record followed here is PMC7597670 (Bioorganic & medicinal chemistry letters, 2010).

Series [1] can be described thus: Pharmacokinetics after single oral and intravenous administration in rats. The following applies: for AUC / Cmax: rat, plasma, po, 10 mg/kg; for BA: rats, 10 mg/kg po vs 3 mg/kg iv.
The target in series [2] is human CCR5 (Homo sapiens, UniProt P51681). In kind it is cell-based. The settings on record: versus the other three stereoisomers of the hydroxylated analog of 1.
For series [3], the system named is HIV-1MM (R5MDR). The following applies: read-out: Anti-HIV-1 activity IC50 HIV-1MM (R5MDR); inhibition of HIV p24 antigen expression in PBMC; multidrug-resistant.
The subject of series [4] is HIV-1Ba-L (R5). Put plainly: Anti-HIV-1 activity: inhibition of HIV p24 antigen expression in PBMC, HIV-1Ba-L. In kind it is cell-based. The settings on record: read-out: Anti-HIV-1 activity IC50 HIV-1Ba-L (R5).

Sequence of human CCR5 (P51681 whole entry): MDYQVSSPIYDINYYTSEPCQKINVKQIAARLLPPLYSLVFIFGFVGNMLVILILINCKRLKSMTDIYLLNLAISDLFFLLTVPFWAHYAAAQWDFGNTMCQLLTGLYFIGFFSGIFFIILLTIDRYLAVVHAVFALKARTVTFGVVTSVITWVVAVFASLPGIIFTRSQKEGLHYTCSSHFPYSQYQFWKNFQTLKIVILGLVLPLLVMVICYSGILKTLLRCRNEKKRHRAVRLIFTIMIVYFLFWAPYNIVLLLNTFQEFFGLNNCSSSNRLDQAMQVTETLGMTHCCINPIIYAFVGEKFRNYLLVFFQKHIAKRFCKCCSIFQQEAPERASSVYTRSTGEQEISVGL

One may read the AUC as the area under the concentration-time curve, a measure of exposure. A low value points to less exposure. For orientation: Cmax means the highest concentration seen after dosing. In series [1], `CCCCN1C(=O)C(CC(C)C)NC(=O)C12CCN(Cc1ccc(Oc3ccccc3)cc1)CC2.Cl` (stereo not drawn) [Compound 1] showed an AUC of 96.7 ng·h/mL and a Cmax of 33.3 ng/mL.
In series [1], `CCCCN1C(=O)C(CC2CCCCC2)NC(=O)C12CCN(Cc1ccc(Oc3ccccc3)cc1)CC2.Cl` (stereo not drawn) [Compound 2] returned an AUC of 24.8 ng·h/mL, a Cmax of 5.6 ng/mL and a BA of 1.9%.
Regarding `CCCCN1C(=O)[C@@H]([C@H](O)C(C)C)NC(=O)C12CCN(Cc1ccc(Oc3ccccc3)cc1)CC2.Cl` [Compound 3], in series [2], the “fold higher potency than the other isomers in Ca assay” value was 4.5-12 fold.
Regarding `CCCCN1C(=O)[C@H](CC2CCCCC2)NC(=O)C12CCN(Cc1ccc(Oc3ccc(C(=O)O)cc3)cc1)CC2.Cl` [Compound 5], in series [1], the BA came to 34%.
In general, IC50 refers to the concentration needed to halve the response being measured. With SCH-351125, the IC50 in series [3] worked out at 3 ± 0.5 nM; in series [4] it was 4 ± 2 nM.
